According to PubChem BioAssay (NCI):
Several values for one entry are separate records, joined by “and”; a condition that tells them apart may be missing. Equal entries are not always repeated.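 Protocol summary: plate cells (96-well), add compound at 5 concentrations, incubate 48 h, interpolate endpoints linearly. Here, GI50 denotes the concentration required for 50% inhibition of growth. TGI denotes the concentration required for complete inhibition of growth.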 Where a SMILES comes first, the peptide text is derived from it. [ ]: non-standard residue; d: D form. Orn = NCCC[CH](N)C(=O)O

Each molecule was assayed on MDA-MB-468 breast (assay: DTP human tumour cell line panel, 48 h).

Compound	GI50	TGI
CCN1CCN(Cc2ccc3cc(C(=O)Nc4cc(NC(=O)c5ccc6c(c5)OCCO6)ccc4F)ccc3n2)CC1	0.0335 µM	0.181 µM
Cc1ccc(C2CC(c3cccc(Nc4ccncc4)c3)=NN2c2ccc(Cl)cc2)cc1 (configuration not stated)	1.67 µM	3.25 µM
COc1ccc2c(c1)N(CCO)C1=C(C(=O)OC1)C2c1cccc(Br)c1 (configuration not stated)	0.0287 µM	0.128 µM
CC(C)CC1NC(=O)C(CCCN)NC(=O)C(C(C)C)NC(=O)C2CCCN2C(=O)C(Cc2ccccc2)NC(=O)C(CC(C)C)NC(=O)C(CCCN)NC(=O)C(C(C)C)NC(=O)C2CCCN2C(=O)C(Cc2ccccc2)NC1=O (configuration not stated) (cyclo(FPV[Orn]LFPV[Orn]L); configuration not given here)	0.00394 µM	0.0222 µM and 0.0268 µM
O=C(Nc1ncc(Cc2ccc(Cl)cc2)s1)c1ccc2c(c1)OCCO2	0.258 µM	–
COc1cc([C@@H]2c3cc4c(cc3[C@H](O)[C@H]3COC(=O)[C@@H]23)OCO4)cc(OC)c1OC	0.278 µM and 0.0548 µM	2.87 µM and 0.453 µM
N=C1N=Nc2nc(C3(c4nc5n(c4O)C(=N)N=N5)Cc4ccccc4C3=O)c(O)n21 (configuration not stated)	49.8 µM	> 100 µM
Clc1cccc(Cc2cn3cc(-c4ccccc4)nc3s2)c1	4.45 µM	> 100 µM
C#Cc1ccc(-n2c(/C=C/c3ccc4ccccc4n3)nc3ncccc3c2=O)cc1	0.232 µM	0.894 µM
N=C(N)c1ccc(-c2ccc(-c3ccco3)o2)cc1F	1.57 µM	3.41 µM
COc1cc(C2c3cc4c(cc3OC(O)C2C)OCO4)cc(OC)c1O (configuration not stated)	10.6 µM	> 100 µM
Cc1ccc(S(=O)(=O)N2C/C(=C\c3cc(F)cc(F)c3)C(=O)/C(=C/c3cc(F)cc(F)c3)C2)cc1	0.385 µM	1.76 µM
Cn1cc(C2=C(c3cccc(NCC(O)CO)c3)C(=O)NC2=O)c2cc(Cl)ccc21 (configuration not stated)	2.11 µM	8.43 µM
CCN1C(=O)N(CC)C2C1NN=C1SC(c3ccccc3)=CC(=O)N12 (configuration not stated)	0.231 µM	0.867 µM
CCOC(=O)c1c2c(n3cccc(F)c13)C(=O)c1ncccc1C2=O	2.87 µM	9.68 µM
COC(C(=O)[C@@H](O)[C@@H](C)O)[C@@H]1Cc2cc3cc(O[C@H]4C[C@@H](O[C@H]5C[C@@H](O)[C@H](O)C(C)O5)[C@H](O)C(C)O4)c(C)c(O)c3c(O)c2C(=O)[C@H]1O[C@H]1C[C@@H](O[C@H]2C[C@@H](O[C@H]3C[C@@H](O)[C@@H](O)C(C)O3)[C@@H](O)C(C)O2)[C@H](O)C(C)O1 (some centres not stated)	0.396 µM	4.09 µM
N=c1c2c(=O)n3c(nc2nc2sc4ccc(Cl)cc4n12)-c1ccccc1Sc1ccccc1-3	2.67 µM	12.4 µM
O=C(O)c1cn(C2CC2)c2cc(N3CCN(C(=O)Nc4nc(-c5ccc(Cl)cc5)cs4)CC3)c(F)cc2c1=O	1.75 µM	8.15 µM
COc1ccc(-c2oncc2-c2cc(OC)c3c(c2)OCO3)cc1	1.35 µM	> 29.7 µM
NNc1nc(-c2ccccn2)nc2sc3c(c12)CCCCCC3	3.67 µM	31.7 µM
O=C(Nc1cccc(-n2cc(-c3ccncc3)c(-c3ccc(O)c(Cl)c3)n2)c1)Nc1ccc(Cl)c(C(F)(F)F)c1	2.19 µM	6.84 µM
Cc1ccc(S(=O)(=O)C2=C3C(=C(c4ccccc4)c4ccccc43)CN(S(=O)(=O)c3ccc(C)cc3)C2)cc1	5.01 µM	40.6 µM

Compound	GI50	TGI
CCNCCNc1cc(C2CCCC2)c(C#N)c2nc3ccccc3n12	1.64 µM	3.67 µM
COc1ccc(/C=C2\CCCC3=C2N=C2SC=NN2C3c2ccc(OC)c(OC)c2)cc1OC (configuration not stated)	2.18 µM	25.3 µM
CC(=O)/C=C/c1ccc(N(C)Cc2ccc(C(C)(C)C)cc2)cc1	59.7 µM	215 µM
CCC1=C[C@H]2CN(CCc3c([nH]c4ccccc34)[C@@](C(=O)OC)(c3cc4c(cc3OC)N(C)[C@H]3[C@@](O)(C(=O)OC)[C@H](OC(C)=O)[C@]5(CC)[C@@H]6C[C@@H]6CN6CC[C@]43[C@@H]65)C2)C1	0.0145 µM	6.59 µM
CCOCC[P+](c1ccccc1)(c1ccccc1)c1ccccc1	2.62 µM	24.9 µM
Cc1cc(Cl)ccc1Nc1nc(C(F)(F)F)ccc1C(=O)N/N=C/c1c(Cl)cccc1Cl	0.274 µM	0.842 µM
O=C(Nc1cccc2ccccc12)c1cc2ccccc2cc1O	2.45 µM	6.33 µM
Fc1ccc(-c2cc3nc(C(Cl)Cl)nc(-c4ccccc4)n3n2)cc1	0.269 µM	0.869 µM
COc1ccc(/C=C/C(=O)c2ccc(NC(=O)CSc3nnc(-c4cc(OC)c(OC)c(OC)c4)o3)cc2)cc1	2.1 µM	5.02 µM
CN(C)CCOc1cccc(NC2=C(Cl)C(=O)C(Nc3cccc(OCCN(C)C)c3)=C(Cl)C2=O)c1	0.181 µM	0.358 µM
C#Cc1cc(OC)c(C(=O)Nc2ccc(F)cc2C(=O)Nc2cccc(S(=O)(=O)C(F)(F)F)c2)cn1	1.51 µM	3.99 µM
O=CNc1ccc2c(c1)Cc1cc([N+](=O)[O-])ccc1-2	1.88 µM	> 100 µM
CCOC(=O)C1=C(N)Oc2cc(OC)ccc2C1c1ccc(F)c(F)c1 (configuration not stated)	0.352 µM	4 µM
O=C1C=CC(=O)N1CCCCCCCCCCN1C(=O)C=CC1=O	3.22 µM	14 µM
Cc1cccc2c(=O)c3c(sc12)c(NCCN)nc1ccccc13	0.7 µM	1.58 µM
COC(=O)c1cccc(NC2=C(Cl)C(=O)c3nc(C)ccc3C2=O)c1	1.61 µM	3.28 µM
CCCNNC(=O)c1ccc(CNC(=O)/C=C/c2ccccc2)cc1	0.311 µM	> 31.1 µM
COc1ccc2oc(-c3ccc(Cl)cc3)c(N3CCN(C)CC3)c2c1	1.66 µM	4.31 µM
CCN(CC)CCCC(C)Nc1ccnc2cc(Cl)c(SCc3ccccc3)cc12 (configuration not stated)	1.23 µM	2.57 µM
C#CCOc1c(OC)cc(C(=O)/C(C)=C/c2cccc(N=[N+]=[N-])c2)cc1OC	0.0855 µM	> 100 µM
COc1cccc(-c2cc(NCc3ccc4c(c3)OCO4)nc(N)n2)c1	0.22 µM	15.1 µM
Cc1cc(Cl)ccc1Nc1nc(C(F)(F)F)ccc1C(=O)N/N=C/c1ccc(F)cc1	0.706 µM	3.26 µM
